These results are taken from patent EP4389751A1, “HETEROCYCLIC COMPOUNDS AND USES THEREOF” (Kumquat Biosciences Inc., priority 2021, dated 2024).

Each structure is given as a SMILES string. pIC50: −log10 of the molar value.

The term pIC50 denotes the negative decadic logarithm of the IC50, by convention in mol/L.

The target in one experiment is T1, K-Ras G12S (Homo sapiens, UniProt P01116, G12S).
T1 construct: made in house; host or cells: E. coli (e.g., BL21 (DE3))
As to the kind of experiment: HTRF assay of the K-Ras / SOS1 interaction. It is filed as biochemical. To be noted: IC50 (against K-Ras G12D) to IC50 (against K-Ras G12S). Summed up:
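Compounds (duplicates, 10 µM to 0.01 µM) were incubated ≥~10 min with Eu-labelled GST-K-Ras G12S and XL665-labelled His-hSOS1 in HEPES pH 7.4 buffer containing NaCl, DTT, BSA and Igepal. Disruption measured as HTRF emission ratio 665/620 nm, fitted to IC50.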
In general terms: TR-FRET usually uses a lanthanide donor and a delayed reading to cut background.

Experiment [1] deals with T2, KRAS protein (His-tagged GDP-loaded G12S 1-169) (Homo sapiens, UniProt P01116, G12S).
T2 construct: His-tagged GDP-loaded G12S 1-169
As to the kind of experiment: Covalent modification of KRAS protein, intact-protein LC-MS. It is filed as binding. To be noted: 24hrs at room temperature, KRAS protein ~2 µM. As for the experimental part: Test compounds are prepared as 10 mM stock solutions in DMSO (Fisher cat#BP231-100). KRAS protein (His-tagged GDP-loaded wildtype 1-169, His-tagged GDP-loaded G12S 1-169 or His-tagged GDP-loaded G12D 1-169) is diluted to ~2 µM in appropriate buffer (e.g., a Hepes buffer at physiological conditions). For testing KRAS modification, compounds are diluted to 50X final test concentration in DMSO in 96-well storage plates. 2 µl of the diluted 50X compounds are added to appropriate wells in the PCR plate (Fisher cat#AB-0800). […] of the stock protein solution is added to each well of the 96-well PCR plate. Reactions are mixed carefully. The plate is sealed well with aluminum plate seal, and stored in drawer at room temperature for 24hrs. 5 µl of 2% formic acid (Fisher cat#A1 17-50) in MilliQ H2O is then added to each well followed by mixing with a pipette. The plate is then resealed with aluminum seal and stored until mass spectrometry analysis.
The extent of covalent modification of KRAS proteins was determined by liquid chromatography electrospray mass spectrometry analysis of the intact proteins on a Thermo Q-Exactive Plus mass spectrometer. 20 µl of sample was injected onto a bioZen 3.6 µm Intact C4 column (Phenomenex cat#00B-4767-AN) placed in a column oven set to 40°C and separated using a suitable LC gradient from -20% to ~60% solvent B. Solvent A was 0.1% formic acid and solvent B was 0.1% formic acid in acetonitrile. HESI source settings were set to 40, 5 and 1 for the sheath, auxiliary and sweep gas flow, respectively. The spray voltage was 4 kV, and the capillary temperature was 320°C. S-lens RF level was 50 and auxiliary gas heater temperature was set to 200°C. The mass spectrometry was acquired using a scan range from 650 to 1750 m/z using positive polarity at a mass resolution of 70,000, AGC target of 1e6 ions and maximum injection time of 250ms. The recorded protein mass spectrum was deconvoluted from the raw data file using Protein Deconvolution v4.0 (Thermo). The protein mass and adduct masses were exported with their peak intensities. The peak intensities for the unmodified and modified protein were used to calculate the percent covalent modification of the KRAS protein based on the following equation: %KRAS protein modification = ((KRAS-compound) / (KRAS) + (KRAS-Compound)) *100.

The next experiment relates to GP2D cells. As to the kind of experiment: Cell proliferation assay (CellTiter-Glo), K-Ras G12D cells. Type of experiment: cell-based. To be noted: GP2D cells (K-Ras G12D); read-out: Inhibition of GP2D Cells (IC50). The essentials: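 CellTiter-Glo luminescence, taken roughly 5 days after dosing, measured growth of G12D-mutant GP2D cells in DMEM/2 mM glutamine/10% FBS. Compound dilution series (e.g., 9 points, 3-fold) added the day after plating. Four-parameter fitting gave IC50.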
In general terms: Cellular ATP, detected with luciferase, serves as a proxy for viable cell number.

For `N#Cc1c(N)sc2c(F)ccc(-c3c(Cl)cc4c(N5CCC6C5CCCN6C(=O)n5cncn5)nc(OC[C@@]56CCCN5C[C@H](F)C6)nc4c3F)c12` (stereo partly drawn) [Compound A181, 4-(4-(4-(1H-1,2,4-triazole-1-carbonyl)octahydro-1H-pyrrolo[3,2-b]pyridin-1-yl)-6-chloro-8-fluoro-2-(((2R,7aS)-2-fluorotetrahydro-1H-pyrrolizin-7a(5H)-yl)methoxy)quinazolm-7-yl)-2-amino-7-fluorobenzo[b]thiophene-3-carbonitrile], at K-Ras G12S, the “Ratio of IC50 KRAS G12D vs. IC50 KRAS G12S” value (from here on “Ratio”) was “A (A: indicates that the ratio of IC50 against KrasG12D vs. IC50 against KrasG12S is 1-fold or greater)”. The “% G12S Modification at 24 hr.” value in experiment [1] was “+++ (+++ indicates greater than 20% labelling)”. Moreover, in the experiment on GP2D cells, the pIC50 was no less than 6.00.
For `Nc1nc2c(-c3c(Cl)cc4c(N5CCOC6(CN(C(=O)n7cncn7)C6)C5)nc(OC[C@@]56CCCN5C[C@H](F)C6)nc4c3F)ccc(F)c2s1` [Compound A273, (8-(7-(2-amino-7-fluorobenzo[d]thiazol-4-yl)-6-chloro-8-fluoro-2-(((2R,7aS)-2-fluorotetrahydro-1H-pyrrolizin-7a(5H)-yl)methoxy)quinazolin-4-yl)-5-oxa-2,8-diazaspiro[3.5]nonan-2-yl)(1H-1,2,4-triazol-1-yl)methanone], in that order: “A (A: indicates that the ratio of IC50 against KrasG12D vs. IC50 against KrasG12S is 1-fold or greater)”, “+++ (+++ indicates greater than 20% labelling)” and 5.00 to 6.00.
The like results for `N#Cc1c(N)sc2c(F)ccc(-c3c(Cl)cc4c(N5CCN(C(=O)n6cncn6)CC(F)(F)C5)nc(OC[C@@]56CCCN5C[C@H](F)C6)nc4c3F)c12` [Compound A280, 2-amino-4-(6-chloro-4-(6,6-difluoro-4-(1H-1,2,4-triazole-1-carbonyl)-1,4-diazepan-1-yl)-8-fluoro-2-(((2R,7aS)-2-fluorotetrahydro-1H-pyrrolizin-7a(5H)-yl)methoxy)quinazolin-7-yl)-7-fluorobenzo[b]thiophene-3-carbonitrile] were, in that order, “A (A: indicates that the ratio of IC50 against KrasG12D vs. IC50 against KrasG12S is 1-fold or greater)”, “+++ (+++ indicates greater than 20% labelling)” and no less than 6.00.
For `Nc1nc2c(-c3c(Cl)cc4c(N5CCC56CCCN(C(=O)n5cncn5)C6)nc(OCC56CCCN5CC(F)C6)nc4c3F)ccc(F)c2s1` (stereo not drawn) [Compound A197, (1-(7-(2-amino-7-fluorobenzo[d]thiazol-4-yl)-6-chloro-8-fluoro-2-((2-fluorotetrahydro-1H-pyrrolizin-7a(5H)-yl)methoxy)quinazolin-4-yl)-1,6-diazaspiro[3.5]nonan-6-yl)(1H-1,2,4-triazol-1-yl)methanone], in that order: “A (A: indicates that the ratio of IC50 against KrasG12D vs. IC50 against KrasG12S is 1-fold or greater)”, “+++ (+++ indicates greater than 20% labelling)” and 5.00 to 6.00.
As to `N#Cc1c(N)sc2c(F)ccc(-c3c(Cl)cc4c(N5CC6OCCN(C(=O)n7cncn7)C6C5)nc(OC[C@@]56CCCN5C[C@H](F)C6)nc4c3F)c12` (stereo partly drawn) [Compound A227, 4-(4-(4-(1H-1,2,4-triazole-1-carbonyl)hexahydropyrrolo[3,4-b][1,4]oxazin-6(2H)-yl)-6-chloro-8-fluoro-2-(((2R,7aS)-2-fluorotetrahydro-1H-pyrrolizin-7a(5H)-yl)methoxy)quinazolin-7-yl)-2-amino-7-fluorobenzo[b]thiophene-3-carbonitrile], at K-Ras G12S, the “Ratio” value is listed as “A (A: indicates that the ratio of IC50 against KrasG12D vs. IC50 against KrasG12S is 1-fold or greater)”. The “% G12S Modification at 24 hr.” value in experiment [1] is listed as “+++ (+++ indicates greater than 20% labelling)”. In the experiment with GP2D cells, the negative logarithm of the IC50 (pIC50) was 5.00 to 6.00.
The like results for `N#Cc1c(N)sc2c(F)ccc(-c3c(Cl)cc4c(N5CC6(CN(C(=O)n7cncn7)CCO6)C5)nc(OC[C@@]56CCCN5C[C@H](F)C6)nc4c3F)c12` [Compound A140, 4-(4-(8-(1H-1,2,4-triazole-1-carbonyl)-5-oxa-2,8-diazaspiro[3.5]nonan-2-yl)-6-chloro-8-fluoro-2-(((2R,7aS)-2-fluorotetrahydro-1H-pyrrolizin-7a(5H)-yl)methoxy)quinazolin-7-yl)-2-amino-7-fluorobenzo[b]thiophene-3-carbonitrile] were, in that order, “A (A: indicates that the ratio of IC50 against KrasG12D vs. IC50 against KrasG12S is 1-fold or greater)”, “+++ (+++ indicates greater than 20% labelling)” and 5.00 to 6.00.
For `Nc1nc2c(-c3c(Cl)cc4c(N5CCCC6(CCN(C(=O)n7cncn7)C6)C5)nc(OC[C@@]56CCCN5C[C@H](F)C6)nc4c3F)ccc(F)c2s1` (stereo partly drawn) [Compound A104, (7-(7-(2-amino-7-fluorobenzo[d]thiazol-4-yl)-6-chloro-8-fluoro-2-(((2R,7aS)-2-fluorotetrahydro-1H-pyrrolizin-7a(5H)-yl)methoxy)quinazolin-4-yl)-2,7-diazaspiro[4.5]decan-2-yl)(1H-1,2,4-triazol-1-yl)methanone], in that order: “A (A: indicates that the ratio of IC50 against KrasG12D vs. IC50 against KrasG12S is 1-fold or greater)”, “++ (++ indicates between about 1%- 20% labelling)” and 5.00 to 6.00.
For `N#CC[C@H]1CN(c2nc(OC[C@@]34CCCN3C[C@H](F)C4)nc3c(F)c(-c4ccc(F)c5sc(N)nc45)c(Cl)cc23)CCN1C(=O)n1cncn1` [Compound A145, 2-((2S)-4-(7-(2-amino-7-fluorobenzo[d]thiazol-4-yl)-6-chloro-8-fluoro-2-(((2R,7aS)-2-fluorotetrahydro-1H-pyrrolizin-7a(5H)-yl)methoxy)quinazolin-4-yl)-1-(1H-1,2,4-triazole-1-carbonyl)piperazin-2-yl)acetonitrile], in that order: “A (A: indicates that the ratio of IC50 against KrasG12D vs. IC50 against KrasG12S is 1-fold or greater)”, “+++ (+++ indicates greater than 20% labelling)” and 5.00 to 6.00.
On to `N#Cc1c(N)sc2c(F)ccc(-c3c(Cl)cc4c(N5CC6(CCCN(C(=O)n7cncn7)C6)C5)nc(OC[C@@]56CCCN5C[C@H](F)C6)nc4c3F)c12` [Compound A266, 4-(4-(6-(1H-1,2,4-triazole-1-carbonyl)-2,6-diazaspiro[3.5]nonan-2-yl)-6-chloro-8-fluoro-2-(((2R,7aS)-2-fluorotetrahydro-1H-pyrrolizin-7a(5H)-yl)methoxy)quinazolm-7-yl)-2-amino-7-fluorobenzo[b]thiophene-3-carbonitrile], for which, at K-Ras G12S, the “Ratio” value is on record as “A (A: indicates that the ratio of IC50 against KrasG12D vs. IC50 against KrasG12S is 1-fold or greater)”. Also, the “% G12S Modification at 24 hr.” value in experiment [1] was “+++ (+++ indicates greater than 20% labelling)”. In addition, the negative-log IC50 (pIC50) with GP2D cells was 5.00 to 6.00.
For `N#C[C@H]1CN(c2nc(OC[C@@]34CCCN3C[C@H](F)C4)nc3c(F)c(-c4ccc(F)c5sc(N)nc45)c(Cl)cc23)CCN1C(=O)n1cncn1` [Compound A157, (2R)-4-(7-(2-amino-7-fluorobenzo[d]thiazol-4-yl)-6-chloro-8-fluoro-2-(((2R,7aS)-2-fluorotetrahydro-1H-pyrrolizin-7a(5H)-yl)methoxy)quinazolin-4-yl)-1-(1H-1,2,4-triazole-1-carbonyl)piperazine-2-carbonitrile], in that order: “A (A: indicates that the ratio of IC50 against KrasG12D vs. IC50 against KrasG12S is 1-fold or greater)”, “++ (++ indicates between about 1%- 20% labelling)” and 5.00 to 6.00.
